Results from patent US8293771B2, “p38 MAP kinase inhibitors” (Respivert Ltd., priority 2008, dated 2012).
pIC50: −log10 of the molar value.

Legend:
[1] = test system: Differentiated U937 cells; assay: LPS-induced TNFα release in differentiated U937 cells; type: cell-based; conditions: Homo sapiens, U-937; 0.1 ug/ml LPS, 4 hrs; compound pre-incubated 2 hrs
Protocol: U937 cells, human monocytic cell line, were differentiated to macrophage-type cells by incubation with phorbol myristate acetate (PMA; 100 ng/ml) for 48 to 72 hours. Where appropriate, cells were pre-incubated with final concentrations of compound for 2 hrs. Cells were then stimulated with 0.1 ug/ml of LPS (from E. Coli: O111:B4, Sigma) for 4 hrs, and the supernatant collected for determination of TNFα concentration by sandwich ELISA (Duo-set, R&D systems). THP-1, human monocytic cell line, was also used for this assay. THP-1 cells were stimulated with 1 ug/ml of LPS (from E. Coli: O111:B4, Sigma) for 4 hrs, and the supernatant collected for determination of TNFα concentration.

[2] = test system: neutrophil and macrophage accumulation into airways of mice exposed to cigarette smoke; assay: Cigarette smoke model; type: in vivo, A/J mice; conditions: intra-nasal, twice daily for 3 days
Protocol: A/J mice (males, 5 weeks old) were exposed to cigarette smoke (4% cigarette smoke, diluted with compressed air) for 30 min/day for 11 days using a Tobacco Smoke Inhalation Experiment System for small animals (Model SIS-CS; Sibata Scientific Technology, Tokyo, Japan). Test substances were given intra-nasally (35 μl of solution in 50% DMSO/PBS) and therapeutically twice daily for 3 days after the final cigarette smoke exposure. Twelve hours after the last dosing, animals were anesthetized, the trachea cannulated and bronchoalveolar lavage fluid (BALF) was collected. The numbers of alveolar macrophages and neutrophils were determined by FACS analysis (EPICS® ALTRA II, Beckman Coulter, Inc., Fullerton, Calif., USA) using anti-mouse MOMA2 antibody (macrophage) or anti-mouse 7/4 antibody (neutrophil).
The results are shown in FIG. 3 for activated alveolar macrophages and in FIG. 4 for neutrophils. Data for cell numbers are shown as the mean±SEM.

[3] = test system: ovalbumin-mediated lung function changes (sGaw); assay: Ovalbumin challenge/parainfluenza infection model (in vivo model for steroid resistance); design: species or system Dunkin-Hartley guinea-pigs
Protocol: Male Dunkin-Hartley guinea-pigs (300-350 g, n=6/group) were sensitised with 100 μg ovalubumin (OVA)+100 mg Al2(OH)3 in 1 ml normal saline (i.p.) on days 2 and 6. Parainfluenza virus (PIV-3; 10^6 infectious units) or media without virus was nasally instilled on days 11 and 12. Animals were treated with nebulised fluticasone propionate at a dose of 1.5 mg per day. […] All animals were challenged for 1 h with nebulised OVA (10 μg/ml) on day 15 and repeated measurements of specific airways conductance (sGaw) were made over a 24 h period using whole body plethysmography. Measurements of sGaw after OVA challenge are plotted as % change from baseline.

[4] = test system: LPS-induced neutrophil accumulation; assay: LPS-induced neutrophilia in the mouse; type: in vivo
[5] = test system: Differentiated U937 cells; assay: MTT assay in differentiated U937 cells; type: cell-based, human; conditions: 4, 24 h (10 ug/ml)
Protocol: Differentiated U937 cells were pre-incubated with compound for 4 hrs in 5% FCS or 10% FCS for 24 hrs and 72 hrs. The supernatant was replaced with 200 ul of new media and 10 ul of MTT stock solution (5 mg/ml) added to each well. After 1 hr incubation, the media were removed, 200 ul of DMSO added to each well and the plates were shaken lightly for 1 hour prior to reading the absorbance at 550 nm.
The percentage loss of cell viability was calculated for each well relative to vehicle (0.5% DMSO)-treatment. Consequently an apparent increase in cell viability for drug treatment relative to vehicle is tabulated as a negative percentage.

Row | Structure (SMILES) | pIC50 [1] | Efficacy in cigarette smoke model of steroid-resistant inflammation [2] | Efficacy in ovalbumin challenge/parainfluenza model of steroid-resistant inflammation ([3]; guinea pigs, PIV3 inoculated, 4.5 mg per day nebulised) | Inhibition of LPS-induced neutrophil accumulation ([4]; mouse, intra tracheal pre-dosing, BALF 8 hours after LPS) | Duration of effect on LPS-induced neutrophil accumulation ([4]; mouse, pre-dose time before LPS) | Differentiated U937 cells MTT assay [5] | Ovalbumin-mediated lung function changes ([3]; sensitized animals treated with PIV3 medium (no virus), nebulised 1.5 mg per day) | inhibition at 50 µg/mL ([4]; Mus musculus, Neutrophil, 50 μg/ml (35 μl, bid))
1 | COCC(=O)Nc1cc(COc2ccc(NC(=O)Nc3cc(C(C)(C)C)nn3-c3ccc(C)cc3)c3ccccc23)ccn1 [Example 1, N-[4-({4-[3-(3-tert-Butyl-1-p-tolyl-1H-pyrazol-5-yl)ureido]naphthalen-1-yloxy}methyl)pyridin-2-yl]-2-methoxyacetamide] | 9.06 | effective | effective | effective in inhibiting LPS-induced neutrophil accumulation | significant inhibition even at 12 or more hours of pre-dosing | Negative^2 | – | –
2 | CCC(=O)O[C@]1(C(=O)SCF)[C@H](C)C[C@H]2[C@@H]3C[C@H](F)C4=CC(=O)C=C[C@]4(C)[C@@]3(F)[C@@H](O)C[C@@]21C [fluticasone propionate, reference compound] | – | – | – | – | – | – | inhibited ovalbumin-mediated lung function changes | > 80%
